Values of other authors as cited in PubChem BioAssay AID1259409 (Chemical Carcinogenesis Research Information System (CCRIS), 2018).

Tested on: rodent chemically induced tumor inhibition, incidence and multiplicity
Assay: CCRIS tumor inhibitor studies
Conditions: Route [Inhibitor]: ORAL

SMILES: Cn1c(=O)c2c(ncn2C)n(C)c1=O
- tumour outcome (control, treated, inhibition, significance) (Carcinogen: 2-AMINO-1-METHYL-6-PHENYLIMIDAZO[4,5-B]PYRIDINE [105650-23-5], Dose [Inhibitor]: 0.1% IN DRINKING WATER FOR 54 WK (STUDY DURATION: 54 WK), Species: RAT, Strain/Sex: F344/DUCRJ/FEMALE, Target Tissue: Type of Lesion: MAMMARY GLAND: ADENOMA OR ADENOCARCINOMA, Dose [Carcinogen]: 0.02% IN DIET FOR 54 WK (STUDY DURATION: 54 WK), Promoter: NONE): 8/20 (40%), 2/20 (10%), 75%, p<0.05
- tumour outcome (control, treated, inhibition, significance) (Carcinogen: 4-(METHYLNITROSAMINO)-1-(3-PYRIDYL)-1-BUTANONE, 64091-91-4, Dose [Inhibitor]: 0, 1120 MG IN DRINKING WATER FOR 13 WK BEGINNING 2 WK PRIOR TO CARCINOGEN TREATMENT (STUDY DURATION: 18 WK), Species: MOUSE, Strain/Sex: STRAIN-A/FEMALE, Target Tissue: Type of Lesion: LUNG: ADENOMA, Dose [Carcinogen]: 11.65 MG/KG 3/WK FOR 10 WK, Promoter: NONE USED): 100%, 100%, 0%, not significant
- tumour outcome (control, treated, inhibition, significance) (Carcinogen: 4-(METHYLNITROSAMINO)-1-(3-PYRIDYL-1-BUTANONE), 64091-91-4, Dose [Inhibitor]: 0, 170 PPM IN DRINKING WATER FOR 22WK BEGINNING 1 WK PRIOR TO CARCINOGEN TREATMENT (STUDY DURATION:101 WK), Species: RAT, Strain/Sex: F344/MALE, Target Tissue: Type of Lesion: LIVER: TUMOR, Dose [Carcinogen]: 1.5 MG/KG 3/WK FOR 20 WK, Promoter: NONE USED): 11/32 (34%), 5/20 (25%), 26%, not significant
- tumour outcome (control, treated, inhibition, significance) (Carcinogen: 4-(METHYLNITROSAMINO)-1-(3-PYRIDYL-1-BUTANONE), 64091-91-4, Dose [Inhibitor]: 0, 170 PPM IN DRINKING WATER FOR 22 WK BEGINNING 1 WK PRIOR TO CARCINOGEN TREATMENT (STUDY DURATION:101 WK), Species: RAT, Strain/Sex: F344/MALE, Target Tissue: Type of Lesion: LUNG:TUMOR, Dose [Carcinogen]: 1.5 MG/KG 3/WK FOR 20 WK, Promoter: NONE USED): 15/32 (47%), 4/20 (20%), 57%, not significant
- tumour outcome (control, treated, inhibition, significance) (Carcinogen: 4-(METHYLNITROSAMINO)-1-(3-PYRIDYL-1-BUTANONE), 64091-91-4, Dose [Inhibitor]: 0, 170 PPM IN DRINKING WATER FOR 22 WK BEGINNING 1 WK PRIOR TO CARCINOGEN TREATMENT (STUDY DURATION:101 WK), Species: RAT, Strain/Sex: F344/MALE, Target Tissue: Type of Lesion: NASAL CAVITY: TUMOR, Dose [Carcinogen]: 1.5 MG/KG 3/WK FOR 20 WK, Promoter: NONE USED): 6/32 (19%), 3/20 (15%), 21%, not significant
- tumour outcome (control, treated, inhibition, significance) (Carcinogen: 4-(METHYLNITROSAMINO)-1-(3-PYRIDYL-1-BUTANONE), 64091-91-4, Dose [Inhibitor]: 0, 680 PPM IN DRINKING WATER FOR 22 WK BEGINNING 1 WK PRIOR TO CARCINOGEN TREATMENT (STUDY DURATION:101 WK), Species: RAT, Strain/Sex: F344/MALE, Target Tissue: Type of Lesion: LUNG:TUMOR, Dose [Carcinogen]: 1.5 MG/KG 3/WK FOR 20 WK, Promoter: NONE USED): 15/32 (47%), 2/20 (10%), 79%, p<0.01
- tumour outcome (control, treated, inhibition, significance) (Carcinogen: 4-(METHYLNITROSAMINO)-1-(3-PYRIDYL-1-BUTANONE), 64091-91-4, Dose [Inhibitor]: 0, 680 PPM IN DRINKING WATER FOR 22 WK BEGINNING 1 WK PRIOR TO CARCINOGEN TREATMENT (STUDY DURATION: 101 WK), Species: RAT, Strain/Sex: F344/MALE, Target Tissue: Type of Lesion: NASAL CAVITY: TUMOR, Dose [Carcinogen]: 1.5 MG/KG 3/WK FOR 20 WK, Promoter: NONE USED): 6/32 (19%), 5/20 (25%), -32%, not significant
- tumour outcome (control, treated, inhibition, significance) (Carcinogen: 4-METHYLNITROSAMINO-1-(3-PYRIDYL)-1-BUTANONE, 64091-91-4, Dose [Inhibitor]: 0, 1120 PPM IN DRINKING WATER 2 WK PRIOR TO CARCINOGEN AND CONTINUING FOR 13 WK (STUDY DURATION: 29 WK), Species: MOUSE, Strain/Sex: A/J/FEMALE, Target Tissue: Type of Lesion: LUNG: ADENOMA, Dose [Carcinogen]: 11.65 MG/KG IN CORN OIL 3/WK FOR 10 WK, Promoter: NONE USED): 100%, 100%, 0%, not significant
- tumour outcome (control, treated, inhibition, significance) (Carcinogen: 7,12-DIMETHYLBENZ[A]ANTHRACENE, 57-97-6, Dose [Inhibitor]: 0, 500 MG/L IN DRINKING WATER BEGINNING AT 27 D OF AGE AND CONTINUING TO 59 D OF AGE (STUDY DURATION: 52 WK), Species: RAT, Strain/Sex: SPRAGUE-DAWLEY/FEMALE, Target Tissue: Type of Lesion: MAMMARY GLAND: BENIGN TUMOR, Dose [Carcinogen]: 0.5 MG/100 G BW ONCE AT 55 D OF AGE, Promoter: NONE USED): 71/73 (97%), 65/70 (93%), 4%, not significant
- tumour outcome (control, treated, inhibition, significance) (Carcinogen: 7,12-DIMETHYLBENZ[A]ANTHRACENE, 57-97-6, Dose [Inhibitor]: 0, 500 MG/L IN DRINKING WATER BEGINNING AT 27 D OF AGE AND CONTINUING TO 59 D OF AGE (STUDY DURATION: 52 WK), Species: RAT, Strain/Sex: SPRAGUE-DAWLEY/FEMALE, Target Tissue: Type of Lesion: MAMMARY GLAND: CARCINOMA, Dose [Carcinogen]: 0.5 MG/100 G BW ONCE AT 55 D OF AGE, Promoter: NONE USED): 42/73 (58%), 20/70 (29%), 50%, p<0.001
- tumour outcome (control, treated, inhibition, significance) (Carcinogen: 7,12-DIMETHYLBENZ[A]ANTHRACENE, 57-97-6, Dose [Inhibitor]: 0, 500 MG/L IN DRINKING WATER BEGINNING AT 59 D OF AGE AND CONTINUING FOR DURATION OF STUDY (STUDY DURATION: 48 WK), Species: RAT, Strain/Sex: SPRAGUE-DAWLEY/FEMALE, Target Tissue: Type of Lesion: MAMMARY GLAND: BENIGN TUMOR, Dose [Carcinogen]: 0.5 MG/100 G BW ONCE AT 55 D OF AGE, Promoter: NONE USED): 70/72 (97%), 55/62 (89%), 8%, p,0.05
- tumour outcome (control, treated, inhibition, significance) (Carcinogen: 7,12-DIMETHYLBENZ[A]ANTHRACENE, 57-97-6, Dose [Inhibitor]: 0, 500 MG/L IN DRINKING WATER BEGINNING AT 59 D OF AGE AND CONTINUING FOR DURATION OF STUDY (STUDY DURATION: 48 WK), Species: RAT, Strain/Sex: SPRAGUE-DAWLEY/FEMALE, Target Tissue: Type of Lesion: MAMMARY GLAND: CARCINOMA, Dose [Carcinogen]: 0.5 MG/100 G BW ONCE AT 55 D OF AGE, Promoter: NONE USED): 39/72 (54%), 31/62 (50%), 7%, not significant
- tumour outcome (control, treated, inhibition, significance) (Carcinogen: 7,12-DIMETHYLBENZ[A]ANTHRACENE, 57-97-6, Dose [Inhibitor]: 0, 500 MG/L IN DRINKING WATER OF 58 DAY OLD VIRGIN RATS (STUDY DURATION: 56 WK), Species: RAT, Strain/Sex: SPRAGUE-DAWLEY/FEMALE, Target Tissue: Type of Lesion: MAMMARY GLAND: CARCINOMA, Dose [Carcinogen]: 2 MG/100 G BW ONCE AT 55 D OF AGE, Promoter: NONE USED): 95%, 100%, -5%, not significant
